Source: patent publication US20080076760A1, “2,3,4,5-TETRAHYDRO-1H-1,5-BENZODIAZEPINE DERIVATIVE AND MEDICINAL COMPOSITION” (priority 2004, published 2008)
pKi: −log10 of the molar value.

Key:
[1] = molecular target: human vasopressin V1a receptor (Homo sapiens, UniProt P37288); test: Receptor binding study, [3H]AVP displacement on CHO cell membranes, human V1a; settings: [3H]AVP displacement, CHO cell membrane, 25° C., one hour; read-out: Human V1a Ki
Experimental: (§1) (ii) Receptor Binding Study
(§2) Assay was performed using 50 mM of Tris-HCl (pH=7.4) (total amount: 250 μL) (buffer composition: containing […] of MgCl2 and 0.1% BSA), and incubation was performed at room temperature (25° C.) for one hour. After incubation, suck filtration was immediately performed and reaction was completed when the membrane sample was collected on a glass fiber filter fitted with the microplate. After the filter was washed with an ice-cold Tris-HCl buffer (50 mM Tris-HCl, 10 mM MgCl2, pH 7.4), radioactivity measurement was performed. Nonspecific binding was determined using nonradioactive-labeled AVP (1 μM).

[2] = molecular target: human vasopressin V2 receptor (Homo sapiens, UniProt P30518); test: Receptor binding study, [3H]AVP displacement on CHO cell membranes, human V2; settings: [3H]AVP displacement, CHO cell membrane, 25° C., one hour; read-out: Human V2 Ki
human vasopressin V2 receptor, sequence (P30518 whole entry): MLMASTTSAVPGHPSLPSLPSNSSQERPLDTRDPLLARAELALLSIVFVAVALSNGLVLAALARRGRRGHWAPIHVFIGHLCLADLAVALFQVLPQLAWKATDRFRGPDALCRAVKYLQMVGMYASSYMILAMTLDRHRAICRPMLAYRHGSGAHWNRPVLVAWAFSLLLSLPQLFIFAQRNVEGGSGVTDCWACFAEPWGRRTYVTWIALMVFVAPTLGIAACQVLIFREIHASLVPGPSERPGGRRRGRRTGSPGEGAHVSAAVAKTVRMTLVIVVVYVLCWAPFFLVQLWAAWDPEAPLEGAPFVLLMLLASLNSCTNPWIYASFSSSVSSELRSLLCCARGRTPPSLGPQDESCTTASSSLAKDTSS
Experimental: Preparation of Chinese hamster ovary (Cho) cell which expresses human vasopressin receptor subtype and production of membrane sample of the cell was conducted according to the method of Tahara et al. (Br. J. Pharmacol., 125, 1463-1470, 1998).
as §1
as §2, with “In saturation binding experiment, the membrane sample and [^3H]AVP of several concentrations (0.125 nM to 4.0 nM) were mixed and incubated in microplate wells. In displacement experiment, [^3H]AVP of constant concentrations (0.5 nM to 1.0 nM) and the membrane sample were mixed with Compound A of several concentrations, and incubation was performed. Assay” for “Assay”

human vasopressin V1a receptor, sequence (P37288 whole entry): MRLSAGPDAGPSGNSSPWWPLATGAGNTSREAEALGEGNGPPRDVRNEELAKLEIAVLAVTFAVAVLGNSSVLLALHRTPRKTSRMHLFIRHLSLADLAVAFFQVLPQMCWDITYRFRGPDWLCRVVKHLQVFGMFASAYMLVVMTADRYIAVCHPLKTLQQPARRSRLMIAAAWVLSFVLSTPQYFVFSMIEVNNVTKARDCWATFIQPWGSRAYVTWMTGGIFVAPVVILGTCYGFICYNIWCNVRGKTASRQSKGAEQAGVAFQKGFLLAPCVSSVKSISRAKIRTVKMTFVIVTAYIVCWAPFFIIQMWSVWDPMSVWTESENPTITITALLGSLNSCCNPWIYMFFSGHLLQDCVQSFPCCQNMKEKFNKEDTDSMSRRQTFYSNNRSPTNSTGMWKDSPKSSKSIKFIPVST

Row | SMILES | pKi [1] | pKi [2]
1 | C[C@H]1CCN(C(=O)c2ccc(-c3ccc4[nH]ccc4c3)c(OCCCN3CCOCC3)c2)c2ccccc2N1 [Example 61, (4S)-1-[4-(1H-indol-5-yl)-3-[3-(4-morpholinyl)propoxy]benzoyl]-4-methyl-2,3,4,5-tetrahydro-1H-1,5-benzodiazepine] | 9.66 | 8.72
2 | COc1ccc(S(=O)(=O)N2c3ccc(Cl)cc3[C@](O)(c3ccccc3Cl)[C@@H]2C(=O)N2CCC[C@H]2C(N)=O)cc1OC [SR49059, reference compound] |  | 6.84
3 | CCCN(CCC)CCCOc1cc(C(=O)N2CC[C@H](C)Nc3ccccc32)ccc1-c1ccc2[nH]ccc2c1 [Example 79, N-[3-[2-(1H-indol-5-yl)-5-[[(4S)-4-methyl-2,3,4,5-tetrahydro-1H-1,5-benzodiazepin-1-yl]carbonyl]phenoxy]propyl]-N,N-dipropylamine] | 9.89 | 7.80
4 | C[C@H]1CCN(C(=O)c2ccc(-c3ccc4[nH]ccc4c3)c(NS(C)(=O)=O)c2)c2ccccc2N1 [Example 48, N-[2-(1H-indol-5-yl)-5-[[(4S)-4-methyl-2,3,4,5-tetrahydro-1H-1,5-benzodiazepin-1-yl]carbonyl]phenyl]methanesulfonamide] | 9.64 | 8.82
5 | CCCN(C)CCCOc1cc(C(=O)N2CC[C@H](C)Nc3ccccc32)ccc1-c1ccc(OC)cc1 [Example 131, N-[3-[[4′-methoxy-4-[[(4S)-4-methyl-2,3,4,5-tetrahydro-1H-1,5-benzodiazepin-1-yl]carbonyl][1,1′-biphenyl]-2-yl]oxy]propyl]-N-methyl-N-propylamine] | 9.59 | 7.08
6 | COc1cc(C(=O)N2CC[C@H](C)Nc3ccccc32)ccc1-c1ccc2[nH]ccc2c1 [Example 47, (4S)-1-[4-(1H-indol-5-yl)-3-methoxybenzoyl]-4-methyl-2,3,4,5-tetrahydro-1H-1,5-benzodiazepine] | 9.41 | 8.92
7 | C[C@H]1CCN(C(=O)c2ccc(-c3ccc4[nH]ccc4c3)c(OCCCCN3CCOCC3)c2)c2ccccc2N1 [Example 67, (4S)-1-[4-(1H-indol-5-yl)-3-[4-(4-morpholinyl)butoxy]benzoyl]-4-methyl-2,3,4,5-tetrahydro-1H-1,5-benzodiazepine] | 9.72 | 8.06
8 | CCCCN1CCN(CCOc2cc(C(=O)N3CC[C@H](C)Nc4ccccc43)ccc2-c2ccc3[nH]ccc3c2)CC1 [Example 148, (4S)-1-[3-[2-(4-butyl-1-piperazinyl)ethoxy]-4-(1H-indol-5-yl)benzoyl]-4-methyl-2,3,4,5-tetrahydro-1H-1,5-benzodiazepine] | 9.64 | 8.02
9 | CCN1CCC(OC(=O)c2cc(C(=O)N3CC[C@H](C)Nc4ccccc43)ccc2-c2ccc3[nH]ccc3c2)C1 (stereo partly drawn) [Example 145, 1-ethyl-3-pyrrolidinyl 2-(1H-indol-5-yl)-5-[[(4S)-4-methyl-2,3,4,5-tetrahydro-1H-1,5-benzodiazepin-1-yl]carbonyl]benzoate] | 9.92 | 7.70
10 | COCCN(CCCOc1cc(C(=O)N2CC[C@H](C)Nc3ccccc32)ccc1-c1ccc2[nH]ccc2c1)CCOC [Example 84] | 10.00 | 8.19
11 | CCCN(C)CCCOC(=O)c1cc(C(=O)N2CC[C@H](C)Nc3ccccc32)ccc1-c1ccc2[nH]ccc2c1 [Example 132, 3-[methyl(propyl)amino]propyl 2-(1H-indol-5-yl)-5-[[(4S)-4-methyl-2,3,4,5-tetrahydro-1H-1,5-benzodiazepin-1-yl]carbonyl]benzoate] | 9.60 | 6.76
12 | CC(=O)Nc1cc(C(=O)N2CCC(C)Nc3ccccc32)ccc1-c1ccc2[nH]ccc2c1 (centres unmarked) [Example 3, N-[2-(1H-indol-5-yl)-5-[(4-methyl-2,3,4,5-tetrahydro-1H-1,5-benzodiazepin-1-yl)carbonyl]phenyl]acetamide] | 9.74 | 7.66
13 | C[C@H]1CCN(C(=O)c2ccc(-c3ccc4[nH]ccc4c3)c(OCCCN(C)CCN(C)C)c2)c2ccccc2N1 [Example 112, N1-[3-[2-(1H-indol-5-yl)-5-[[(4S)-4-methyl-2,3,4,5-tetrahydro-1H-1,5-benzodiazepin-1-yl)carbonyl]phenoxy]propyl]-N1,N2,N2-trimethyl-1,2-ethaneamine] | 9.38 | 7.64
14 | C[C@H]1CCN(C(=O)c2ccc(-c3ccc4[nH]ccc4c3)c(OCCCN3CCCCC3)c2)c2ccccc2N1 [Example 71, (4S)-1-[4-(1H-indol-5-yl)-3-[3-(1-piperidinyl)propoxy]benzoyl]-4-methyl-2,3,4,5-tetrahydro-1H-1,5-benzodiazepine] | 9.80 | 7.96
15 | C[C@H]1CCN(C(=O)c2ccc(-c3ccc4[nH]ccc4c3)c(CN3CCOCC3)c2)c2ccccc2N1 [Example 94, (4S)-1-[4-(1H-indol-5-yl)-3-(4-morpholinylmethyl)benzoyl]-4-methyl-2,3,4,5-tetrahydro-1H-1,5-benzodiazepine] | 9.68 | 9.14
16 | CCCCCN(C)CCCOc1cc(C(=O)N2CC[C@H](C)Nc3ccccc32)ccc1-c1ccc2[nH]ccc2c1 [Example 108, N-[3-[2-(1H-indol-5-yl)-5-[[(4S)-4-methyl-2,3,4,5-tetrahydro-1H-1,5-benzodiazepin-1-yl]carbonyl]phenoxy]propyl]-N-methyl-1-pentaneamine] | 9.38 | 7.68
17 | CCCCN(C)CCCCOc1cc(C(=O)N2CC[C@H](C)Nc3ccccc32)ccc1-c1ccc2[nH]ccc2c1 [Example 173, N-butyl-4-[2-(1H-indol-5-yl)-5-[[(4S)-4-methyl-2,3,4,5-tetrahydro-1H-1,5-benzodiazepin-1-yl]carbonyl]phenoxy]-N-methyl-1-butaneamine] | 9.68 | 8.00
18 | CNc1ccc(-c2ccc(C(=O)N3CC[C@H](C)Nc4ccccc43)cc2OCCCN2C(=O)CNC2=O)cc1 [Example 106, 3-[3-[[4′-(methylamino)-4-[[(4S)-4-methyl-2,3,4,5-tetrahydro-1H-1,5-benzodiazepin-1-yl]carbonyl][1,1′-biphenyl]-2-yl]oxy]propyl]-2,4-imidazolidinedion] | 9.85 | 8.70
19 | CCCCCN(C)CCCCOc1cc(C(=O)N2CC[C@H](C)Nc3ccccc32)ccc1-c1ccc2[nH]ccc2c1 [Example 174, N-[4-[2-(1H-indol-5-yl)-5-[[(4S)-4-methyl-2,3,4,5-tetrahydro-1H-1,5-benzodiazepin-1-yl]carbonyl]phenoxy]butyl]-N-methyl-1-pentaneamine] | 9.46 | 7.96
20 | CC(C)N1CCN(CCCOc2cc(C(=O)N3CC[C@H](C)Nc4ccccc43)ccc2-c2ccc3[nH]ccc3c2)CC1 [Example 99, (4S)-1-[4-(1H-indol-5-yl)-3-[3-(4-isopropyl-1-piperazinyl)propoxy]benzoyl]-4-methyl-2,3,4,5-tetrahydro-1H-1,5-benzodiazepine] | 9.52 | 8.47
21 | C[C@H]1CCN(C(=O)c2ccc(-c3ccc4[nH]ccc4c3)c(OCCCN(C)C)c2)c2ccccc2N1 [Example 78, N-[3-[2-(1H-indol-5-yl)-5-[[(4S)-4-methyl-2,3,4,5-tetrahydro-1H-1,5-benzodiazepin-1-yl]carbonyl]phenoxy]propyl]-N,N-dimethylamine] | 9.96 | 7.92
